Measurements published in publication PMC12352620, “Fragment-based discovery of dual ligand pharmacophores for lipid-sensing transcription factors for designed polypharmacology” (RSC Medicinal Chemistry, 2025).

How the values were obtained:
Assay type in all cases: cell-based
FXR = target: T1, FXR (Homo sapiens, UniProt Q96RI1); experiment: Gal4-hybrid reporter gene assay FXR; details: mean ± S.E.M., n ≥ 3; for EC50 FXR / EC50: HEK293T, Gal4-hybrid reporter, Inactive = tested 1–300 μM; for max. fold activation FXR: maximum reporter activation vs DMSO (0.1%) treated cells
T1 construct: expressed in transfected cells; host or cells: HEK293T
T1 sequence (Q96RI1 262-486 limits assumed): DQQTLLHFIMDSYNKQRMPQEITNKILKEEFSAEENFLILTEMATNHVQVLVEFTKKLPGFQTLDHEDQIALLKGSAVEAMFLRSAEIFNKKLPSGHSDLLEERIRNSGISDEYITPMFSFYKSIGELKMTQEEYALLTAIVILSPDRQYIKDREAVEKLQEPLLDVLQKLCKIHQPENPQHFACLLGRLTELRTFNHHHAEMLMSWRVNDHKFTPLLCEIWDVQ
Experimental: (§1) NR modulation was determined as described previously[45] in Gal4 hybrid reporter gene assays in HEK293T cells (German Collection of Microorganisms and Cell Culture GmbH, DSMZ) using pFR-Luc (Stratagene, La Jolla, CA, USA; reporter), pRL-SV40 (Promega, Madison, WI, USA; internal control) and the hybrid receptor clones pFA-CMV-hTHRα-LBD,[46] pFA-CMV-hPPARγ-LBD,[47] pFA-CMV-hFXR-LBD,[48] and pFA-CMV-hRXRα-LBD,[49] coding for the hinge region and ligand binding domain of the canonical isoform of the respective NR. Cells were cultured in Dulbecco's modified Eagle's medium (DMEM), high glucose supplemented with 10% fetal calf serum (FCS), sodium pyruvate (1 mM), penicillin (100 U mL^−1), and streptomycin (100 μg mL^−1) at 37 °C and 5% CO2 and seeded in 96-well plates (3 × 10^4 cells per well). After 24 h, medium was changed to Opti-MEM without supplements and cells were transiently transfected using Lipofectamine LTX reagent (Invitrogen, Carlsbad, CA, USA) according to the manufacturer's protocol. Five hours after transfection, cells were incubated with the test compounds in Opti-MEM supplemented with penicillin (100 U mL^−1), streptomycin (100 μg mL^−1) and 0.1% DMSO for 16 h before luciferase activity was measured using the Dual-Glo Luciferase Assay System (Promega) according to the manufacturer's protocol on a Tecan Spark luminometer (Tecan Deutschland GmbH, Crailsheim, Germany). Firefly luminescence was divided by Renilla luminescence and multiplied by 1000 resulting in relative light units (RLU) to normalize for transfection efficiency and cell growth. Fold activation was obtained by dividing the mean RLU of test compound by the mean RLU of the untreated control. All samples were tested in at least three biologically independent experiments in duplicates. For dose–response curve fitting and calculation of EC50 values, the equation “[agonist] vs. response − variable slope (four parameters)” was used in GraphPad Prism (version 7.00, GraphPad Software, La Jolla, CA, USA). For selectivity profiling, the hybrid reporter gene assay was performed with Gal4 fusion receptor plasmids for RARα, PPARα, PPARδ, VDR, CAR and LXRα. The following reference agonists were used: triiodothyronine (1 μM, THR), all-trans retinoic acid (1 μM, RAR), GW7647 (1 μM, PPARα), pioglitazone (1 μM, PPARγ), L165041 (1 μM, PPARδ), calcitriol (1 μM, VDR), CITCO (1 μM, CAR), T0901317 (1 μM, LXR), GW4064 (1 μM, FXR), bexarotene (1 μM, RXR).

PPARγ = target: T2, PPARγ (Homo sapiens, UniProt P37231); experiment: Gal4-hybrid reporter gene assay PPARγ; details: mean ± S.E.M., n ≥ 3; for max. fold activation PPARγ: maximum reporter activation vs DMSO (0.1%) treated cells
T2 construct: expressed in transfected cells; host or cells: HEK293T
T2 sequence (P37231 238-503 limits assumed): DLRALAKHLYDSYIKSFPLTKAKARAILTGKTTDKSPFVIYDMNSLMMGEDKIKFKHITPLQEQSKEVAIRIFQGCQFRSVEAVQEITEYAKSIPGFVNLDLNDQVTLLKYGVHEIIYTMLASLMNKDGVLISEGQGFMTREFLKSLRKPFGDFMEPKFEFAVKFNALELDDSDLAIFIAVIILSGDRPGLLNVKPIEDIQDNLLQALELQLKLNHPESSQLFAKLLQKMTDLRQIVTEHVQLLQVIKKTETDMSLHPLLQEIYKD
Experimental: as §1

RXRα = target: T3, RXRα (Homo sapiens, UniProt P19793); experiment: Gal4-hybrid reporter gene assay RXRα; details: mean ± S.E.M., n ≥ 3; for EC50 RXRα / EC50: HEK293T, Gal4-hybrid reporter, Inactive = tested 1–300 μM; for max. fold activation RXRα: maximum reporter activation vs DMSO (0.1%) treated cells
T3 construct: expressed in transfected cells; host or cells: HEK293T
T3 sequence (P19793 227-458 limits assumed): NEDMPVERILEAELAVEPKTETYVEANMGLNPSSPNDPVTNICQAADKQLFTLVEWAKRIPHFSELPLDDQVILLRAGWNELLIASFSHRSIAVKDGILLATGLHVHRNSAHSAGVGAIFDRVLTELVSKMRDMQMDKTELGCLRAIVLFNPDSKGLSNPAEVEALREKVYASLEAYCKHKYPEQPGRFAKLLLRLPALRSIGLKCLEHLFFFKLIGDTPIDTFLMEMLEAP
Experimental: as §1

THRα = target: T4, THRα (Homo sapiens, UniProt P10827); experiment: Gal4-hybrid reporter gene assay THRα; details: for EC50 THRα / EC50: HEK293T, Gal4-hybrid reporter, Inactive = tested 1–300 μM; for max. fold activation THRα: maximum reporter activation vs DMSO (0.1%) treated cells
T4 construct: expressed in transfected cells; host or cells: HEK293T
T4 sequence (P10827 128-410 isoform P10827-2 limits assumed): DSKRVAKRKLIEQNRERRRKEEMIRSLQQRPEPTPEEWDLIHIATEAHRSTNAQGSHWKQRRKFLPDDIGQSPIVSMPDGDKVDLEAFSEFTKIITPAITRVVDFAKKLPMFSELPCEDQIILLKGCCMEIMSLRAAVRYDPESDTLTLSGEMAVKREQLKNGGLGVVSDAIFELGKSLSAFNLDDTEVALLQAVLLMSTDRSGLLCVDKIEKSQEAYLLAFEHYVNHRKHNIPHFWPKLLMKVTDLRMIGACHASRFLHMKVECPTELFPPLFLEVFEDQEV
Experimental: as §1

[1] = HEK293T, Gal4-hybrid reporter, Inactive = tested 1–300 μM

Row | EC50 FXR (FXR) | EC50 (PPARγ; [1]) | max. fold activation PPARγ (PPARγ) | EC50 RXRα (RXRα) | EC50 THRα (THRα; mean ± S.E.M., n ≥ 3) | EC50 (RXRα) | max. fold activation RXRα (RXRα) | EC50 (THRα; mean ± S.E.M., n ≥ 3) | max. fold activation THRα (THRα; mean ± S.E.M., n ≥ 3) | EC50 (FXR) | max. fold activation FXR (FXR) | EC50 PPARγ (PPARγ; [1]) | type of activity on THRα (THRα; Gal4-hybrid reporter gene assay) | remaining THRα activity (THRα; inverse agonism, % remain., mean ± S.E.M., n ≥ 3) | IC50 (THRα; inverse agonism, mean ± S.E.M., n ≥ 3) | Structure (SMILES)
1 | Inactive | 47 ± 3 µM | (17.4 ± 0.3-fold) | Inactive | Inactive | – | – | – | – | – | – | – | – | – | – | O=C(O)COc1ccccc1Cc1ccccc1 [2.43]
2 | Inactive | 255 ± 15 µM | (4.3 ± 0.2-fold) | – | – | 134 ± 41 µM | (1.9 ± 0.9-fold) | 92 ± 29 µM | (2.7 ± 0.3-fold) | – | – | – | – | – | – | C/C(=C\C(=O)O)c1ccc(C(F)(F)F)cc1 [compound 91]
3 | – | 126 ± 17 µM | (14 ± 1-fold) | – | – | 54 ± 9 µM | (2.2 ± 0.13-fold) | 194 ± 54 µM | (5 ± 1-fold) | 53 ± 10 µM | (1.9 ± 0.1-fold) | – | – | – | – | O=C(O)c1ccc(-c2cccc(F)c2)o1 [compound 53]
4 | Inactive | 62 ± 2 µM | (26 ± 2-fold) | Inactive | Inactive | – | – | – | – | – | – | – | – | – | – | O=C(O)/C=C/C(=O)c1ccccc1 [4.1, (E)-4-Oxo-4-phenylbut-2-enoic acid]
5 | – | 86 ± 8 µM | (21 ± 1-fold) | – | – | 55 ± 8 µM | (3.5 ± 0.1-fold) | 55 ± 19 µM | (2.6 ± 0.3-fold) | 108 ± 22 µM | (3.2 ± 0.4-fold) | – | – | – | – | COc1ccc(/C=C(/C(=O)O)C(F)(F)F)cc1 [2.19]
6 | Inactive | – | – | Inactive | – | – | – | – | – | – | – | Inactive | Inverse agonist | (41 ± 5% remain.) | 36 µM | O=C(O)C(c1ccccc1)(c1ccccc1)c1ccccc1 [compound 19]
7 | Inactive | 126 ± 9 µM | (6.7 ± 0.3-fold) | Inactive | Inactive | – | – | – | – | – | – | – | – | – | – | COc1ccc(/C=C/C(=O)O)cc1 [2.12]
8 | – | 32 ± 1 µM | (20 ± 1-fold) | – | – | 50 ± 4 µM | (7 ± 2-fold) | 31 ± 7 µM | (2.4 ± 0.3-fold) | 39 ± 3 µM | (3.8 ± 0.4-fold) | – | – | – | – | Cc1ccccc1C(=O)/C=C/C(=O)O [4.2, (E)-4-Oxo-4-(o-tolyl)but-2-enoic acid]
9 | – | 30 ± 4 µM | (12 ± 2-fold) | – | – | 46 ± 1 µM | (4.0 ± 0.2-fold) | 46 ± 7 µM | (7 ± 2-fold) | 40 ± 3 µM | (3.1 ± 0.3-fold) | – | – | – | – | O=C(O)/C=C/C(=O)c1ccc(Cl)cc1 [4.5, (E)-4-Oxo-4-(4-chlorophenyl)but-2-enoic acid]
10 | – | 53 ± 5 µM | (2.4 ± 0.1-fold) | Inactive | – | – | – | 185 ± 16 µM | (2.5 ± 0.4-fold) | 162 ± 31 µM | (2.2 ± 0.3-fold) | – | – | – | – | CSc1nccn1-c1ccc(C(=O)O)cc1 [compound 30]
11 | – | 25.9 ± 0.4 µM | (31.2 ± 0.6-fold) | – | – | 33 ± 6 µM | (8 ± 1-fold) | 27 ± 1 µM | (8.9 ± 0.5-fold) | 26 ± 1 µM | (9.5 ± 0.4-fold) | – | – | – | – | CCOc1ccc(C(=O)/C=C/C(=O)O)cc1 [2.7]
12 | – | 38 ± 1 µM | (19 ± 1-fold) | – | – | 30 ± 5 µM | (4.7 ± 0.5-fold) | 19 ± 8 µM | (3.1 ± 0.6-fold) | 22 ± 5 µM | (3.4 ± 0.4-fold) | – | – | – | – | Cc1cccc(C(=O)/C=C/C(=O)O)c1 [4.3, (E)-4-Oxo-4-(m-tolyl)but-2-enoic acid]
13 | Inactive | 237 ± 37 µM | (6 ± 1-fold) | – | – | 166 ± 10 µM | (1.6 ± 0.1-fold) | 112 ± 44 µM | (2.0 ± 0.1-fold) | – | – | – | – | – | – | CCc1c(C(=O)O)cnn1-c1ccccc1 [compound 78]
14 | – | 37 ± 1 µM | (17.5 ± 0.9-fold) | – | – | 35 ± 1 µM | (5.3 ± 0.2-fold) | 28 ± 3 µM | (3.4 ± 0.4-fold) | 27 ± 9 µM | (3.4 ± 0.7-fold) | – | – | – | – | Cc1ccc(C(=O)/C=C/C(=O)O)cc1 [4.4, (E)-4-Oxo-4-(p-tolyl)but-2-enoic acid]
15 | Inactive | 39 ± 3 µM | (9.6 ± 0.5-fold) | Inactive | Inactive | – | – | – | – | – | – | – | – | – | – | N#Cc1c(F)c(F)cc(C(=O)O)c1F [compound 58]
16 | – | 32 ± 2 µM | (3.2 ± 0.2-fold) | – | – | 14 ± 5 µM | (2.1 ± 0.2-fold) | 26 ± 5 µM | (2.1 ± 0.2-fold) | 11 ± 2 µM | (1.7 ± 0.1-fold) | – | – | – | – | O=C(O)c1coc(-c2cccc(Cl)c2)c1 [3.2, 5-(3-Chlorophenyl)furan-3-carboxylic acid]
17 | Inactive | 51 ± 9 µM | (11.0 ± 0.5-fold) | Inactive | – | – | – | 10 ± 3 µM | (1.7 ± 0.1-fold) | – | – | – | – | – | – | O=C(O)/C=C/C(=O)c1ccc(F)cc1F [2.28]

Row | Structure (SMILES) | EC50 FXR (FXR) | EC50 (PPARγ; [1]) | max. fold activation PPARγ (PPARγ) | EC50 RXRα (RXRα) | EC50 THRα (THRα; mean ± S.E.M., n ≥ 3) | EC50 (RXRα) | max. fold activation RXRα (RXRα) | EC50 (THRα; mean ± S.E.M., n ≥ 3) | max. fold activation THRα (THRα; mean ± S.E.M., n ≥ 3) | EC50 (FXR) | max. fold activation FXR (FXR) | EC50 PPARγ (PPARγ; [1]) | type of activity on THRα (THRα; Gal4-hybrid reporter gene assay) | remaining THRα activity (THRα; inverse agonism, % remain., mean ± S.E.M., n ≥ 3) | IC50 (THRα; inverse agonism, mean ± S.E.M., n ≥ 3)
18 | O=C(O)c1ccc(OCc2ccccc2)cc1 [compound 22] | Inactive | 136 ± 19 µM | (28 ± 2-fold) | Inactive | – | – | – | 95 ± 9 µM | (8.8 ± 0.5-fold) | – | – | – | – | – | –
19 | O=C(O)/C=C/C=C/c1ccc2c(c1)OCO2 [2.6] | – | 137 ± 8 µM | (9.3 ± 0.5-fold) | – | – | 112 ± 19 µM | (3.4 ± 0.2-fold) | 225 ± 91 µM | (5.0 ± 1.4-fold) | 138 ± 44 µM | (5.2 ± 0.8-fold) | – | – | – | –
20 | O=C(O)c1ccc(Oc2ccccc2)cc1 [compound 44] | Inactive | 99 ± 12 µM | (38 ± 3-fold) | Inactive | – | – | – | 105 ± 28 µM | (18 ± 3-fold) | – | – | – | – | – | –
